Earlier results on three compounds are cited in patent publication US8114422B2, “Methods and compositions for reducing skin damage” (The General Hospital Corporation, priority 2005, dated 2012).

Like-named read-outs stand apart in the source and are kept apart here.

One series concerns the target PDGF receptor kinase. The settings on record: read-out: IC50 PDGF receptor (tyrosine) kinase.
For series [1], the system named is mitochondrial membrane potential.

One may read the IC50 as the point on the concentration scale where inhibition reaches its midpoint. As for `N#CC(=Cc1ccc2[nH]ccc2c1)C(N)=C(C#N)C#N` [AG-370], the IC50 on PDGF receptor kinase was 20 µM. As to `COc1cc2ncc(-c3ccccc3)nc2cc1OC` [AG-1296, 6,7-Dimethoxy-3-phenylquinoxaline], on PDGF receptor kinase, the IC50 was 1 µM. With `N#CC(C#N)=NNc1ccc(OC(F)(F)F)cc1` [FCCP, Carbonylcyanide-4-(trifluoromethoxy)-phenylhydrazone], the figures for the “depolarization of mitochondrial membrane potential” value in series [1] (treatment of cells at 10 μM) and in series [1] (treatment of cells at 100 nm) were “complete (10 μM)” and “partial (100 nm) or”, respectively.
